Test results as given in ChEMBL document CHEMBL1147324, “The isolation and structure of modified bioactive nucleosides from Jaspis johnstoni” (J Nat Prod, 1989).
In brackets after ≈: the same amount, converted by molar mass.

Legend:
Candida albicans = experiment: Antifungal activity against Candida albicans at 1.25 mg/6.4 mm disk; assay type: functional
L1210 [1] = experiment: Cytotoxicity against mouse L1210 cells; assay type: functional, cell-based
L1210 [2] = experiment: Antitumor activity against mouse L1210 cells implanted in mouse assessed as increase in survival; assay type: functional

Row | Structure (SMILES) | inhibition zone (IZ) (Candida albicans) | IC50 (L1210 [1]) | Activity (L1210 [2])
1 | N#Cc1cn([C@@H]2O[C@H](CO)[C@@H](O)[C@H]2O)c2ncnc(N)c12 [TOYOCAMYCIN] | 13 mm | 0.0026 µg/mL (≈ 0.00893 µM) | –
2 | COC(=O)c1cn([C@@H]2O[C@H](CO)[C@@H](O)[C@H]2O)c2ncnc(N)c12 | – | 0.027 µg/mL (≈ 0.0833 µM) | 39%
